According to patent US11744898B2, “Multi-arm polymer conjugates of TLR agonist compounds and related immunotherapeutic treatment methods” (Nektar Therapeutics, priority 2017, dated 2023):

What was measured:
CT26 tumor cells = test: Effect of treatment in vivo on intratumoral immune cell types by flow cytometry, CT26 tumors; design: species or system Balb/c mice
Procedure: The other (contralateral) tumor was not dosed with R848.
Immune cell subtypes were measured by flow cytometry.

[1] = system: proinflammatory cytokines IFNα, IFNγ, TNFα, IL-6 and IL-12; test: Plasma cytokine induction after Compound 6 or resiquimod with staggered RSLAIL-2 in CT26 model; assay type: in vivo, Balb/c mice
Procedure: The concentration of proinflammatory cytokines IFNα, IFNγ, TNFα, IL-6 and IL-12 was determined in plasma by multiplex protein measurement assay at indicated time points post dose.

[2] = Plasma and tumor concentrations following single 10 μg (R848 equivalents) intratumoral administration to CT26 tumor bearing mice; assay type: in vivo, Balb/c mice; design: unit not given here
Procedure: (§1) Studies were conducted to evaluate the single dose pharmacokinetics of R848 and Compound 6 in plasma and tumor tissue.
(§2) Plasma and tumor tissues were collected at pre-determined time points for analysis of R848 and Compound 6 using a qualified LC-MS/MS method.

[3] = Plasma and tumor concentrations following single 10 μg (R848 equivalents) intratumoral administration to EMT6 tumor bearing mice; assay type: in vivo, Balb/c mice; design: unit not given here
Procedure: as §1, §2

[4] = Plasma and tumor concentrations following single 10 μg (R848 equivalents) intratumoral administration to CT26 tumor bearing mice; assay type: in vivo, Balb/c mice; design: key: +<10; 10≤++<100; 100≤+++<1,000; 1,000≤++++; BLQ is Below the Limit of Quantitation
Procedure: as §1, §2

[5] = Plasma and tumor concentrations following single 10 μg (R848 equivalents) intratumoral administration to EMT6 tumor bearing mice; assay type: in vivo, Balb/c mice; design: key: +<10; 10≤++<100; 100≤+++<1,000; 1,000≤++++; BLQ is Below the Limit of Quantitation
Procedure: as §1, §2

STAT5 phosphorylation = STAT5 phosphorylation in lymphocytes by flow cytometry after administration in mice; assay type: in vivo
Description: Conventional approaches, such as those involving radiolabeling a compound, administering it in vivo, and determining its clearance, can be used to determine whether a compound proposed to be a long-acting IL-2Rβ biased agonist is “long-acting”. For the purposes herein, the long acting nature of an IL-2Rβ biased agonist is typically determined using flow cytometry to measure STAT5 phosphorylation in lymphocytes at various time points after administration of the agonist to be evaluated in mice. As a reference, the signal is lost by around 24 hours with IL-2, but is sustained for a period greater than that for a long-acting IL-2Rβ-biased agonist.

[6] = system: subcutaneous B16F10 mouse melanoma tumors; test: Immune cells in tumor microenvironment by flow cytometry, B16F10 melanoma model; assay type: in vivo, mice; conditions: day 7; single dose of RSLAIL-2 or 5 doses of aldesleukin
[7] = plasma, 10 μg intra/peritumoral

Molecule: CCOCc1nc2c(N)nc3ccccc3c2n1CC(C)(C)O [Compound R848, 1-(4-Amino-2-(ethoxymethyl)-1H-imidazo[4,5-c]quinolin-1-yl)-2-methylpropan-2-ol]
- CD8 T Cells (Percent of Vehicle) (CT26 tumor cells): 95%
- CD11c+ CD8+ Dendritic Cells (Percent of Vehicle) (CT26 tumor cells): 135%
- Macrophages (Percent of Vehicle) (CT26 tumor cells): 80%
- Monocytes (Percent of Vehicle) (CT26 tumor cells): 160%
- Neutrophils (Percent of Vehicle) (CT26 tumor cells): 500%
- T Regulatory Cells (Percent of Vehicle) (CT26 tumor cells): 20%
- pro-inflammatory cytokine induction in blood, in words ([1]; 10 μg single intra/peritumoral dose): robust pro-inflammatory cytokine induction in blood
- time of peak level of IFN-γ [1, 7]: 6 h
- time of peak levels of IFNα, TNFα, IL-6 and IL-12 [1, 7]: 2 h
- R848 plasma concentration ([2]; 0.25 hr post-dose): ++ (10≤++<100)
- R848 tumor concentration ([2]; 0.25 hr post-dose): ++ (1,000≤++<10,000)
- R848 plasma concentration ([2]; 2.00 hr post-dose): + (+<10)
- R848 tumor concentration ([2]; 2.00 hr post-dose): + (+<1,000)
- R848 plasma concentration ([2]; 6.00 hr post-dose): + (+<10)
- R848 tumor concentration ([2]; 6.00 hr post-dose): + (+<1,000)
- R848 plasma concentration ([2]; 24.00 hr post-dose): + (+<10)
- R848 tumor concentration ([2]; 24.00 hr post-dose): + (+<1,000)
- R848 tumor concentration ([2]; 72.00 hr post-dose): + (+<1,000)
- R848 tumor concentration ([2]; 96.00 hr post-dose): + (+<1,000)
- R848 tumor concentration ([2]; 120.00 hr post-dose): + (+<1,000)
- R848 tumor concentration ([2]; 144.00 hr post-dose): + (+<1,000)
- R848 plasma concentration ([3]; 0.25 hr post-dose): +++ (100≤+++<1,000)
- R848 tumor concentration ([3]; 0.25 hr post-dose): ++ (1,000≤++<10,000)
- R848 plasma concentration ([3]; 2.00 hr post-dose): + (+<10)
- R848 tumor concentration ([3]; 2.00 hr post-dose): + (+<1,000)
- R848 plasma concentration ([3]; 6.00 hr post-dose): + (+<10)
- R848 tumor concentration ([3]; 6.00 hr post-dose): + (+<1,000)
- R848 tumor concentration ([3]; 24.00 hr post-dose): + (+<1,000)
- R848 tumor concentration ([3]; 72.00 hr post-dose): + (+<1,000)
- R848 tumor concentration ([3]; 96.00 hr post-dose): + (+<1,000)
- R848 tumor concentration ([3]; 120.00 hr post-dose): + (+<1,000)
- R848 tumor concentration ([3]; 144.00 hr post-dose): + (+<1,000)
- R848 plasma concentration ([4]; 72.00 hr post-dose): BLQ
- R848 plasma concentration ([4]; 96.00 hr post-dose): BLQ
- R848 plasma concentration ([4]; 120.00 hr post-dose): BLQ
- R848 plasma concentration ([4]; 144.00 hr post-dose): BLQ
- R848 plasma concentration ([5]; 24.00 hr post-dose): BLQ
- R848 plasma concentration ([5]; 72.00 hr post-dose): BLQ
- R848 plasma concentration ([5]; 96.00 hr post-dose): BLQ
- R848 plasma concentration ([5]; 120.00 hr post-dose): BLQ
- R848 plasma concentration ([5]; 144.00 hr post-dose): BLQ

Molecule: aldesleukin: clinically available IL-2; recombinant IL-2 referred to as aldesleukin
- time by which STAT5 phosphorylation signal is lost (STAT5 phosphorylation): around 24 hours
- ratio of CD8/Treg in the tumor [6]: 18
